Measurements reported in patent US12410155B2, “Salt form and crystal form of tetrahydrocyclohepta indazole compound” (Zhejiang Yangli Pharmaceutical Technology Co., Ltd., priority 2021, dated 2025).

Assays:
Assay type in all cases: cell-based
CAMA-1 cells = test: CAMA-1 cell proliferation inhibition assay (CTG); details: Homo sapiens, 1 nM estradiol
Method: (§1) (4) MCF-7, T-47D, and CAMA-1 Cell Proliferation Inhibition Assay
CAMA-1: EMEM (without phenol red) containing 10% charcoal-stripped serum (500 mL culture medium containing 440 mL EMEM, 50 mL charcoal-stripped serum, 5 mL NEAA, 5 mL 100 mM sodium pyruvate).
(§2) The inhibitory effect of the test compound of formula (I) on the proliferation of MCF-7, CAMA-1, and T-47D cells was analyzed. For MCF-7 cells, ten concentration gradients ranging from 100 nM to 0.0003815 nM were tested, with three replicates for each concentration. For CAMA-1 cells, nine concentration gradients ranging from 100 nM to 0.001526 nM were tested, also with three replicates for each concentration. For T-47D cells, nine concentration gradients ranging from 2 μM to 0.00512 nM were tested, with three replicates for each concentration. Each experiment was conducted twice independently.
The CAMA-1 cells were treated with starvation medium for three days, followed by trypsin digestion, centrifugation, resuspension, and counting. Cell suspensions were prepared using the corresponding culture medium, and 80 μL of the suspension was added to each well of a 96-well plate. The plate was then incubated at 37° C. in a cell incubator with 5% CO2. The test compound of formula (I) was dissolved in DMSO to an initial concentration of 20 μM and subjected to a 4-fold serial dilution to achieve nine different concentrations. After overnight incubation, the diluted compound was further diluted with the corresponding cell culture medium. The resulting mixture was transferred to the respective wells of the cell plate, starting with a final concentration of 100 nM, followed by a 4-fold serial dilution to achieve nine concentrations. The positive control wells contained 2 μM fulvestrant, and 1 nM estradiol was added to the entire plate. […]
(§3) After incubation for the specified time, the cell culture plate was removed, and the CTG reagent was added. […] The readings were taken using the Envision multi-label analyzer. […]

MCF-7 ESR1-Y537S = test: Proliferation inhibition assay, MCF-7 ESR1-Y537S mutant cell line; details: Homo sapiens, MCF7, 168 h, 7 days
Method: The tumor cell lines were cultured in an incubator at 37° C. with 5% CO2. Regular passaging was performed, and cells in the logarithmic growth phase were selected for plating.
• 1) Cells were stained with trypan blue and viable cells were counted. • 2) Cells were washed once with PBS and resuspended in RPMI 1640+10% FBS medium without phenol red. The concentration was adjusted to an appropriate one. • 3) 135 μL of the cell suspension per well was added to a culture plate, and cell-free culture medium was added to the blank control well. • 4) The plates were incubated overnight at 37° C. with 5% CO2 and 100% relative humidity. 3. Preparation of 10× Compound Working Solution and Treatment of Cells • 1) Preparation of 10× compound working solution: 199 μL of cell culture medium was added to V-bottom 96-well plates. From a 2000× compound storage plate, 1 μL of the compound was added to the 96-well plate containing cell culture medium. 1 μL of DMSO was added to vehicle control and blank control. […] The final concentration of DMSO was 0.05%. • 3) The 96-well cell plate was returned to the incubator for further culture, and cell viability was assessed after 7 days. […]
The inhibition rate (IR) of the compound was calculated using the following formula:
[formula] Inhibition rates for different concentrations of the compound were calculated in Excel. […]

T-47D cells = test: T-47D cell proliferation inhibition assay (CTG); details: Homo sapiens, T47D, 1 nM estradiol
Method: as §1
T-47D: RPMI-1640 (without phenol red) containing 10% charcoal-stripped serum (500 mL culture medium containing 450 mL RPMI-1640, 50 mL charcoal-stripped serum).
as §2
The T-47D cells were treated with starvation medium for three days, followed by trypsin digestion, centrifugation, resuspension, and counting. Cell suspensions were prepared using the corresponding culture medium, and 40 μL of the suspension was added to each well of a 384-well plate. The plate was then incubated at 37° C. in a cell incubator with 5% CO2. The test compound of formula (I) was dissolved in DMSO to an initial concentration of 400 μM and subjected to a 5-fold serial dilution to achieve nine different concentrations. After overnight incubation, the diluted compound was further diluted with the corresponding cell culture medium. The resulting mixture was transferred to the respective wells of the cell plate, starting with a final concentration of 2 μM, followed by a 5-fold serial dilution to achieve nine concentrations. The positive control wells contained 2 μM fulvestrant, and 1 nM estradiol was added to the entire plate. The plate was mixed, centrifuged, and incubated at 37° C. in a cell incubator with 5% CO2 for the specified number of days according to the above table.
as §3

## FCCCN1CC[C@H](Nc2cnc(C3=C(CC(F)(F)F)CCCc4c3ccc3[nH]nc(F)c43)cn2)C1 [Compound of formula (I)]
CAMA-1 cells; CAMA-1, First experiment
  IC50: 1.19 nM
CAMA-1 cells; CAMA-1, Mean ± SD
  IC50: 1.29 ± 0.1 nM
CAMA-1 cells; CAMA-1, Second experiment
  IC50: 1.39 nM
MCF-7 ESR1-Y537S; read-out: Relative IC50
  IC50: 11.2 nM
MCF-7 ESR1-Y537S; read-out: Relative IC90
  IC90: 101 nM
T-47D cells; First experiment
  IC50: 1.98 nM
T-47D cells; Mean ± SD
  IC50: 2.35 ± 0.37 nM
T-47D cells; Second experiment
  IC50: 2.71 nM
